{"source": "patent US20230414826A1", "about": "“FIBRIN HYDROGELS” (Mayo Foundation for Medical Education and Research, priority 2020, published 2023)", "target": "T1, fibrin gels (10 mg/mL fibrinogen, 1 U/mL thrombin) (Homo sapiens, UniProt P02671+P02675+P02679)", "T1 construct": "purchased Ethicon (Evicel)", "T1 sequence (P02671 20-644 isoform P02671-2 limits assumed)": "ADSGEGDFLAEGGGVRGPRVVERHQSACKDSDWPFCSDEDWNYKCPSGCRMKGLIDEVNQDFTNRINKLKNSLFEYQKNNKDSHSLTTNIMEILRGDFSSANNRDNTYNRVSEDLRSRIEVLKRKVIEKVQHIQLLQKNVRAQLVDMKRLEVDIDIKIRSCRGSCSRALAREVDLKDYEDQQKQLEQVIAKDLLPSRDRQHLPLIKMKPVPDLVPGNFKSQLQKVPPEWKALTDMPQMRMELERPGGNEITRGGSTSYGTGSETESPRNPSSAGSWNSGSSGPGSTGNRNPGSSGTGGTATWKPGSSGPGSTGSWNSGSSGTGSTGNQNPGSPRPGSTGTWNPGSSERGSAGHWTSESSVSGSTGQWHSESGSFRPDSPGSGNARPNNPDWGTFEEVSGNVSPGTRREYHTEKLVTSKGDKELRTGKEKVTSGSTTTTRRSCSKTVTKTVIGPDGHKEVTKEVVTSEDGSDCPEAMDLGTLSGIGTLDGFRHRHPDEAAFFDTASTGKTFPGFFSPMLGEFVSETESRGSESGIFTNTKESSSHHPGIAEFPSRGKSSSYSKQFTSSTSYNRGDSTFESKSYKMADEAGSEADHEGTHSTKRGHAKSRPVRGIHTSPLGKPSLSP", "T1 sequence (P02675 45-491 limits assumed)": "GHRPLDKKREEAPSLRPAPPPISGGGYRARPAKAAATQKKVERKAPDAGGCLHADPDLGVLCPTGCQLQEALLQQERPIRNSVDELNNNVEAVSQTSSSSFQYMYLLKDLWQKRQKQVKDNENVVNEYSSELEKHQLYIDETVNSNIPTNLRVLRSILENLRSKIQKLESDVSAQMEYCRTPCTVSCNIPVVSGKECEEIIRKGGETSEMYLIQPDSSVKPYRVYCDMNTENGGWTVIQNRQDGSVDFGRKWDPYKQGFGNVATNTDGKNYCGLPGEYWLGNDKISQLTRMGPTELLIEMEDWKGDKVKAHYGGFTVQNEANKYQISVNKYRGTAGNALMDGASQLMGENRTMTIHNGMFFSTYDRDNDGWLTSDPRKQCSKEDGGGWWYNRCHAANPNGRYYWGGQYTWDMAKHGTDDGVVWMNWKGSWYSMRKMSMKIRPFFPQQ", "T1 sequence (P02679 27-437 isoform P02679-2 limits assumed)": "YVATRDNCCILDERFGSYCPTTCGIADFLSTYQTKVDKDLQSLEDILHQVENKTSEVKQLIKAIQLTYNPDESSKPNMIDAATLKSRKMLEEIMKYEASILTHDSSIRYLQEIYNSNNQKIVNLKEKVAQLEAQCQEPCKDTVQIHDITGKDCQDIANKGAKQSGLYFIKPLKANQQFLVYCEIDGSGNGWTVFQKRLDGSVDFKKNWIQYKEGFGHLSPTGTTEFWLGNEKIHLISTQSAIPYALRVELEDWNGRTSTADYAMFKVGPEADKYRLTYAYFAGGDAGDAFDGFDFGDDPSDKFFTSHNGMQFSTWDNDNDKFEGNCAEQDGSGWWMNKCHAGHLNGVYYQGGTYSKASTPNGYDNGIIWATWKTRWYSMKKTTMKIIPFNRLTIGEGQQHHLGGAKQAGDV", "test": "Rheometry gelation time, lower fibrinogen concentration fibrin gels", "type": "biochemical", "settings": "n=3", "protocol": "The viscoelastic mechanical properties of fibrin gels were characterized using oscillatory shear rheology on a Discovery Hybrid Rheometer 2 (TA Instruments; New Castle, DE) with a 20 mm cone-and-plate geometry at a 1° angle and a 20 mm stage. Inertia, friction, and rotational mapping calibrations were performed prior to each experiment. A Peltier temperature-controlled stage maintained 37° C. and a solvent trap was used to control evaporation during experiments lasting longer than 20 minutes. Gels were prepared by mixing specified concentrations of fibrinogen, dye, and thrombin on the stage. Immediately after combining, the geometry head was lowered to 500 μm (˜1-3 seconds) before beginning the first experiment. Gelation kinetics were monitored in time sweeps at 1% strain and 10 rad/s angular frequency. Strain sweeps were measured from 0.01-1000% strain at 1 Hz frequency. A frequency sweeps measured from 0.01-3 Hz at 1% strain was used to confirmed fibrin independence of frequency.\nRheometry was performed for samples with no dye (PBS alone), TB, EB, and PEG. Stock fibrinogen (Evicel) was used as is or diluted with PBS. Thrombin was diluted in PBS, with or without the various dyes. To determine the gelation time, a final mixture concentration of 10 mg/mL fibrinogen, 1 U/mL thrombin, and 0.01% w/v dye concentration was used. A time sweep was performed up to 20 minutes, after which some minor effects of evaporation in non-gelled samples introduced noise and could not reliably detect the storage modulus (g′). The gelation time was defined as the point at which the g′ exceeded the g″ (viscous modulus) and continued to increase over time.\nRheometry was used to confirm findings obtained using the coagulation analyzer and test conditions at higher fibrinogen concentrations used in high mechanical strength scaffolds. While clotting time and gelation time are similar properties, the terms are utilized discretely due to the differences in the respective assays. However, in controls for gels at higher fibrinogen concentrations, thrombin concentrations were decrease by orders of magnitude to assess initial gel time based on the sensitivity of the rheometer. In order to consistently detect a gelation time, when the g′ value (shear modulus) becomes greater than the g″ value (viscous modulus), conditions were set to […] fibrinogen and 1 U/mL thrombin final concentration using tissue glue for all samples. Sample conditions tested using rheometry included use of PBS (control), TB, EB, or PEG solution to dilute the thrombin so that the final gel concentration of the dye was 0.01% w/v. […]\nInitially, g′ and g″ values were on the same scale (<2 Pa). […] Due to this, the gelation time was calculated as when the g′ values exceeded the g″ value and continued to grow over time (arrow, FIG. 5A). […]", "data": [{"smiles": "Cc1cc(-c2ccc(/N=N/c3ccc4c(S(=O)(=O)O)cc(S(=O)(=O)O)c(N)c4c3O)c(C)c2)ccc1/N=N/c1ccc2c(S(=O)(=O)O)cc(S(=O)(=O)O)c(N)c2c1O", "note": "[EB, Evans Blue]", "values": [{"measurement": "gelation time (g′ exceeds g″)", "setting": "0.01% w/v dye", "result": "232.1 ± 19.3", "unit": "s"}]}, {"smiles": "Cc1cc(-c2ccc(/N=N/c3c(S(=O)(=O)O)cc4cc(S(=O)(=O)O)cc(N)c4c3O)c(C)c2)ccc1/N=N/c1c(S(=O)(=O)O)cc2cc(S(=O)(=O)O)cc(N)c2c1O", "note": "[TB, Trypan Blue]", "values": [{"measurement": "gelation time (g′ exceeds g″)", "setting": "0.005% w/v dye", "result": "106.4 ± 22.5", "unit": "s"}, {"measurement": "gelation time (g′ exceeds g″)", "setting": "0.01% w/v dye", "result": "168.7 ± 19.9", "unit": "s"}, {"measurement": "gelation time (g′ exceeds g″)", "setting": "0.12% w/v dye", "result": "206.7 ± 31.3", "unit": "s"}]}]}
